What was measured:
HT-29 cell line = assay: Cell cytotoxicity, MTT assay; assay type: cell-based, human; details: Homo sapiens, HT-29; MTT, 24 h
MCF-7 cell line = assay: Cell cytotoxicity, MTT assay; assay type: cell-based, human
PC-3 cell line = assay: Cell cytotoxicity, MTT assay; assay type: cell-based; details: Homo sapiens, 24 h
HEK293T cell line = assay: Cell cytotoxicity, MTT assay; assay type: cell-based; details: Homo sapiens, HEK-293T, 24 h, healthy cell line
hCA IX = hCA IX (Homo sapiens, UniProt Q16790); assay: biochemical

SMILES	IC50 (HT-29 cell line)	IC50 (MCF-7 cell line; Homo sapiens, MCF7, 24 h)	IC50 (PC-3 cell line)	IC50 (HEK293T cell line)	Ki (hCA IX)	melting point	IC50 (MCF-7 cell line; 24 h)
Cc1ccc(C(C)C)c(OCc2cn(CCOc3ccc4ccc(=O)oc4c3)nn2)c1 [Compound 12, 7-(2-(4-((2-Isopropyl-5-methylphenoxy)methyl)-1H-1,2,3-triazol-1-yl)ethoxy)-2H-chromen-2-one]	48.5 ± 9.01 µM	45.7 ± 14.5 µM	50.2 ± 23.7 µM	107 ± 19.5 µM			
Cc1ccc(C(C)C)c(OCc2cn(CCCOc3ccc4ccc(=O)oc4c3)nn2)c1 [Compound 13, 7-(3-(4-((2-Isopropyl-5-methylphenoxy)methyl)-1H-1,2,3-triazol-1-yl)propoxy)-2H-chromen-2-one]	48.5 ± 8.73 µM						
Cc1ccc(C(C)C)c(OCc2cn(CCCCCCOc3ccc4ccc(=O)oc4c3)nn2)c1 [Compound 15, 7-((6-(4-((2-Isopropyl-5-methylphenoxy)methyl)-1H-1,2,3-triazol-1-yl)hexyl)oxy)-2H-chromen-2-one]	30.1 ± 10.2 µM	143 ± 58.5 µM	48.4 ± 14.4 µM	59.7 ± 12.3 µM			
Cc1ccc(C(C)C)c(OCc2cn(CCCCCCCOc3ccc4ccc(=O)oc4c3)nn2)c1 [Compound 16, 7-((7-(4-((2-Isopropyl-5-methylphenoxy)methyl)-1H-1,2,3-triazol-1-yl)heptyl)oxy)-2H-chromen-2-one]	21.6 ± 8.31 µM	73.1 ± 55.4 µM	167 ± 30.1 µM	142 ± 49.6 µM			
Cc1ccc(C(C)C)c(OCc2cn(CCCCCCCCCOc3ccc4ccc(=O)oc4c3)nn2)c1 [Compound 17, 7-((9-(4-((2-Isopropyl-5-methylphenoxy)methyl)-1H-1,2,3-triazol-1-yl)nonyl)oxy)-2H-chromen-2-one]	28.5 ± 8.9 µM	> 200 µM	12.5 ± 4.4 µM	> 200 µM	0.213 µM		
Cc1ccc(C(C)C)cc1OCc1cn(CCOc2ccc3ccc(=O)oc3c2)nn1 [Compound 20, 7-(2-(4-((5-Isopropyl-2-methylphenoxy)methyl)-1H-1,2,3-triazol-1-yl)ethoxy)-2H-chromen-2-one]	25.9 ± 7.94 µM						
Cc1ccc(C(C)C)cc1OCc1cn(CCCOc2ccc3ccc(=O)oc3c2)nn1 [Compound 21, 7-(3-(4-((5-Isopropyl-2-methylphenoxy)methyl)-1H-1,2,3-triazol-1-yl)propoxy)-2H-chromen-2-one]	39.4 ± 15.8 µM						
Cc1ccc(C(C)C)cc1OCc1cn(CCCCOc2ccc3ccc(=O)oc3c2)nn1 [Compound 22, 7-(4-(4-((5-Isopropyl-2-methylphenoxy)methyl)-1H-1,2,3-triazol-1-yl)butoxy)-2H-chromen-2-one]	37.4 ± 12.1 µM						
C=CCc1ccc(OCc2cn(CCCCCCOc3ccc4ccc(=O)oc4c3)nn2)c(OC)c1 [Compound 31, 7-((6-(4-((4-Allyl-2-methoxyphenoxy)methyl)-1H-1,2,3-triazol-1-yl)hexyl)oxy)-2H-chromen-2-one]	45.2 ± 13.1 µM	16.8 ± 9.71 µM	> 200 µM	15.2 ± 1.06 µM			
CC1CCC(C(C)C)C(OCc2cn(CCOc3ccc4ccc(=O)oc4c3)nn2)C1 (stereo not shown) [Compound 36, 7-(2-(4-(((2-isopropyl-5-methylcyclohexyl)oxy)methyl)-1H-1,2,3-triazol-1-yl)ethoxy)-2H-chromen-2-one]	38.2 ± 12.1 µM					122 to 123 °C	
CC1CCC(C(C)C)C(OCc2cn(CCCCCCOc3ccc4ccc(=O)oc4c3)nn2)C1 (stereo not shown) [Compound 39, 7-((6-(4-(((2-Isopropyl-5-methylcyclohexyl)oxy)methyl)-1H-1,2,3-triazol-1-yl)hexyl)oxy)-2H-chromen-2-one]	65.6 ± 24.2 µM						
CC1CCC(C(C)C)C(OCc2cn(CCCCCCCOc3ccc4ccc(=O)oc4c3)nn2)C1 (stereo not shown) [Compound 40, 7-((7-(4-(((2-Isopropyl-5-methylcyclohexyl)oxy)methyl)-1H-1,2,3-triazol-1-yl)heptyl)oxy)-2H-chromen-2-one]	54.8 ± 19.1 µM						
CC1CCC(C(C)C)C(OCc2cn(CCCCCCCCCOc3ccc4ccc(=O)oc4c3)nn2)C1 (stereo not shown) [Compound 41, 7-((9-(4-(((2-Isopropyl-5-methylcyclohexyl)oxy)methyl)-1H-1,2,3-triazol-1-yl)nonyl)oxy)-2H-chromen-2-one]	44.7 ± 15.1 µM				0.204 µM		
CC1CCC(C(C)C)C(OCc2cn(CCCCCCCCCCOc3ccc4ccc(=O)oc4c3)nn2)C1 (stereo not shown) [Compound 42, 7-((10-(4-(((2-Isopropyl-5-methylcyclohexyl)oxy)methyl)-1H-1,2,3-triazol-1-yl)decyl)oxy)-2H-chromen-2-one]	32.9 ± 8.54 µM	> 200 µM	39.7 ± 17 µM	83.2 ± 28.1 µM	0.0019 µM		
Cc1ccc(C(C)C)c(OCCOc2ccc3ccc(=O)oc3c2)c1 [Compound 44, 7-(2-(2-Isopropyl-5-methylphenoxy)ethoxy)-2H-chromen-2-one]	55.6 ± 4.91 µM					181 to 182 °C	
Cc1ccc(C(C)C)c(OCCCOc2ccc3ccc(=O)oc3c2)c1 [Compound 45, 7-(3-(2-Isopropyl-5-methylphenoxy)propoxy)-2H-chromen-2-one]	> 200 µM	> 200 µM	> 80 µM	43.3 ± 5.43 µM	0.192 µM		
Cc1ccc(C(C)C)c(OCCCCOc2ccc3ccc(=O)oc3c2)c1 [Compound 46, 7-(4-(2-Isopropyl-5-methylphenoxy)butoxy)-2H-chromen-2-one]	> 80 µM	> 200 µM	> 80 µM	> 80 µM	0.0824 µM		

SMILES	IC50 (HT-29 cell line)	IC50 (MCF-7 cell line; Homo sapiens, MCF7, 24 h)	IC50 (PC-3 cell line)	IC50 (HEK293T cell line)	Ki (hCA IX)	melting point	IC50 (MCF-7 cell line; 24 h)
Cc1ccc(C(C)C)c(OCCCCCCOc2ccc3ccc(=O)oc3c2)c1 [Compound 47, 7-((6-(2-Isopropyl-5-methylphenoxy)hexyl)oxy)-2H-chromen-2-one]	> 80 µM	18.4 ± 2.63 µM	29.1 ± 6.02 µM	> 80 µM	0.117 µM		
Cc1ccc(C(C)C)c(OCCCCCCCOc2ccc3ccc(=O)oc3c2)c1 [Compound 48, 7-((7-(2-Isopropyl-5-methylphenoxy)heptyl)oxy)-2H-chromen-2-one]	> 200 µM				0.0368 µM		
Cc1ccc(C(C)C)c(OCCCCCCCCCOc2ccc3ccc(=O)oc3c2)c1 [Compound 49, 7-((9-(2-Isopropyl-5-methylphenoxy)nonyl)oxy)-2H-chromen-2-one]	> 200 µM				0.123 µM		
Cc1ccc(C(C)C)c(OCCCCCCCCCCOc2ccc3ccc(=O)oc3c2)c1 [Compound 50, 7-((10-(2-Isopropyl-5-methylphenoxy)decyl)oxy)-2H-chromen-2-one]	> 200 µM						
Cc1ccc(C(C)C)c(OCCCCCCCCCCCCOc2ccc3ccc(=O)oc3c2)c1 [Compound 51, 7-((12-(2-Isopropyl-5-methylphenoxy)dodecyl)oxy)-2H-chromen-2-one]	> 200 µM	19.6 ± 3.14 µM	62.8 ± 23.7 µM	50.1 ± 15.7 µM	0.0383 µM		
Cc1ccc(C(C)C)cc1OCCOc1ccc2ccc(=O)oc2c1 [Compound 52, 7-(2-(5-Isopropyl-2-methylphenoxy)ethoxy)-2H-chromen-2-one]	74.2 ± 6.48 µM					172 to 173 °C	
Cc1ccc(C(C)C)cc1OCCCOc1ccc2ccc(=O)oc2c1 [Compound 53, 7-(3-(5-Isopropyl-2-methylphenoxy)propoxy)-2H-chromen-2-one]	> 80 µM	30.8 ± 9.23 µM	> 200 µM	> 80 µM	0.303 µM		
Cc1ccc(C(C)C)cc1OCCCCCCOc1ccc2ccc(=O)oc2c1 [Compound 55, 7-((6-(5-Isopropyl-2-methylphenoxy)hexyl)oxy)-2H-chromen-2-one]	63.29 ± 0.57 µM	16.4 ± 2.91 µM	48.3 ± 14.1 µM	> 80 µM	0.0362 µM		
Cc1ccc(C(C)C)cc1OCCCCCCCOc1ccc2ccc(=O)oc2c1 [Compound 56, 7-((7-(5-Isopropyl-2-methylphenoxy)heptyl)oxy)-2H-chromen-2-one]	> 80 µM	8.26 ± 1.28 µM	24.4 ± 4.12 µM	> 80 µM			
Cc1ccc(C(C)C)cc1OCCCCCCCCCOc1ccc2ccc(=O)oc2c1 [Compound 57, 7-((9-(5-Isopropyl-2-methylphenoxy)nonyl)oxy)-2H-chromen-2-one]	> 200 µM						
C=CCc1ccc(OCCCCOc2ccc3ccc(=O)oc3c2)c(OC)c1 [Compound 62, 7-(4-(4-Allyl-2-methoxyphenoxy)butoxy)-2H-chromen-2-one]	> 80 µM	11.3 ± 3.61 µM	45.5 ± 26.5 µM	64.7 ± 20.1 µM	0.0313 µM		
C=CCc1ccc(OCCCCCCCCCCCCOc2ccc3ccc(=O)oc3c2)c(OC)c1 [Compound 67, 7-((12-(4-Allyl-2-methoxyphenoxy)dodecyl)oxy)-2H-chromen-2-one]	> 80 µM						
CC1CCC(C(C)C)C(OCCOc2ccc3ccc(=O)oc3c2)C1 (stereo not shown) [Compound 68, 7-(2-((2-Isopropyl-5-methylcyclohexyl)oxy)ethoxy)-2H-chromen-2-one]	40.7 ± 7.5 µM						
CC1CCC(C(C)C)C(OCCCOc2ccc3ccc(=O)oc3c2)C1 (stereo not shown) [Compound 69, 7-(3-((2-Isopropyl-5-methylcyclohexyl)oxy)propoxy)-2H-chromen-2-one]	12.1 ± 1.94 µM	5.86 ± 1.22 µM	41.4 ± 14.9 µM	50 ± 8.43 µM	0.0341 µM		
CC1CCC(C(C)C)C(OCCCCOc2ccc3ccc(=O)oc3c2)C1 (stereo not shown) [Compound 70, 7-(4-((2-Isopropyl-5-methylcyclohexyl)oxy)butoxy)-2H-chromen-2-one]	14.7 ± 2.81 µM	7.53 µM	24.8 ± 5.35 µM	63.5 ± 11.4 µM	0.142 µM		4.53 ± 1.06 µM
CC1CCC(C(C)C)C(OCCCCCCOc2ccc3ccc(=O)oc3c2)C1 (stereo not shown) [Compound 71, 7-((6-((2-Isopropyl-5-methylcyclohexyl)oxy)hexyl)oxy)-2H-chromen-2-one]	18.6 ± 3.39 µM	30.7 ± 7.04 µM	36 ± 9.49 µM	56.6 ± 10.5 µM			
COc1cccc2c1C(=O)c1c(O)c3c(c(O)c1C2=O)C[C@@](O)(C(=O)CO)C[C@@H]3O[C@H]1C[C@H](N)[C@H](O)[C@H](C)O1 [Dox, doxorubicin, reference compound]	7.41 ± 1.9 µM	0.64 ± 0.11 µM	4.48 ± 1.08 µM	2.03 ± 0.12 µM			
